Measurements taken from paper PMC5291303 (Science translational medicine, 2016).

What was measured:
[1] = test system: microtubule polymer mass in H1299 cells; experiment: Microtubule sedimentation assay; type: cell-based; settings: 4 hours, increasing concentrations
in vivo = settings: mouse
[2] = test system: primary rat cortical neurons; experiment: Axonal microtubule immunostaining in primary neurons; type: cell-based; settings: 1 hour; 0.3 to 100 nM; DZ-2384 up to 100 nM, vinorelbine starting at 0.3 nM
[3] = test system: U-2 OS osteosarcoma cells; experiment: Interphase microtubule immunostaining in U-2 OS cells; type: cell-based; settings: unsynchronized, IC80 (300 nM each), 2 hours
H1299 cells [4] = experiment: Growth inhibition of H1299 cells; type: cell-based
[5] = Toxicity studies to determine NOAEL; type: in vivo, mice; settings: plasma AUC at NOAEL vs at MED
purified tubulin [6] = experiment: Reconstituted single molecule assay for microtubule dynamics; type: biochemical; settings: for Growth and shrinkage rates: 100 nM DZ-2384
[7] = test system: U-2 osteosarcoma (OS) cells; experiment: 3-day viability assay, U-2 OS; type: cell-based
[8] = test system: U-2 OS cells stably expressing an EB3-mCherry fusion protein; experiment: Growing microtubule ends in EB3-mCherry U-2 OS cells; type: cell-based; settings: equipotent (IC80) concentrations
[9] = test system: microtubules in LLC-PK1 cells expressing GFP–α-tubulin; experiment: Microtubule dynamic instability in live cells; type: cell-based; settings: IC80: 24 nM DZ-2384, 11 nM vinorelbine; mean ± SD
tubulin [10] = experiment: Surface plasmon resonance binding and competition; settings: tubulin (3 μM) preincubated with competitor
tubulin [11] = settings: cited from earlier work
HeLa cells = experiment: 3-day cell viability assay, HeLa; type: cell-based
[12] = Plasma exposure by LC-MS/MS at MED and NOAEL doses
[13] = all doses tested, each xenograft model
[14] = test system: human pancreatic cancer PDX; experiment: Pancreatic cancer patient-derived xenograft; type: in vivo, SCID/beige mice; settings: for Effect on tumor growth: gemcitabine 100 mg/m^2, DZ-2384 36 mg/m^2, alone or combined
[15] = test system: Rgs16∷GFP;KIC pancreatic model; experiment: Rgs16::GFP; type: in vivo, mice
[16] = test system: caudal, digital and tibial nerves; dorsal root ganglia, sciatic nerve; experiment: Peripheral neuropathy study; type: in vivo, Sprague-Dawley rats; settings: for Caudal and digital NCV / Tibial nerve onset latency / Caudal and digital NCV after recovery / Histology of dorsal root ganglia and sciatic nerve: at MTD (DZ-2384 30 mg/m^2, docetaxel 120 mg/m^2)
[17] = test system: MDA-MB-231-LM2 breast cancer metastases; experiment: MDA-MB-231-LM2 experimental lung metastasis model; type: in vivo, SCID/beige mice; settings: for Tumor-free animals: up to 106 days after initial treatment
[18] = test system: MIA PaCa-2 model of pancreatic ductal adenocarcinoma; experiment: MIA PaCa-2 subcutaneous xenograft efficacy; type: in vivo, mice
[19] = test system: RS4;11 model of adult Philadelphia chromosome–negative ALL; experiment: RS4; type: in vivo, mice; settings: P = 0.0028 tumor cells; P = 0.0024 survival
purified tubulin [20] = experiment: Electron microscopy of tubulin oligomer curvature; type: biochemical; settings: 10 μM; compared with vinblastine
[21] = test system: E18 rat primary cortical neurons; experiment: IC50 in primary cortical neurons; type: cell-based
H1299 cells [22] = experiment: DNA content and caspase-3 activation in H1299 cells; type: cell-based
Pharmacokinetics in rats = type: in vivo, Sprague-Dawley rats; settings: rat; 12 mg/m^2
[23] = relative to untreated microtubules

## CCC1=C[C@@H]2CN(C1)Cc1c([nH]c3ccccc13)[C@@](C(=O)OC)(c1cc3c(cc1OC)N(C)[C@H]1[C@@](O)(C(=O)OC)[C@H](OC(C)=O)[C@]4(CC)C=CCN5CC[C@]31[C@@H]54)C2 [Vinorelbine, vinorelbine, reference compound]
[1]
  Microtubule polymer mass: like with vinorelbine
In vivo
  AUC: 3380 ng·h/mL
[2]
  Axonal morphology, width and tubulin staining: thinner and/or fragmented axons
[3]
  Interphase microtubule network: intact microtubules were difficult to observe
H1299 cells [4]; Homo sapiens, NCI-H1299
  IC50: 15 nM
[5]
  Safety margin (range over MIA PaCa-2 and HT-29 models): 0.7 to 1.0
Purified tubulin [6]; [23]
  Growth and shrinkage rates: Comparable growth and shrinkage rate decreases
[7]; Homo sapiens, U2OS, 72 h
  IC80: 300 nM
[8]
  Number of growing microtubules: vastly decreasing the number of growing microtubules
[9]
  %Time per phase Growth: 13.1 ± 7.3 (0.0074) %
  %Time per phase Pause: 48.4 ± 8.1 (0.0141) %
  %Time per phase Shrink: 38.6 ± 8.6 (0.1068) %
  Dynamicity: 10.2 ±1.3 (0.0165) μm/min
  Growth Distance: 2.1 ± 0.2 (0.0036) μm
  Growth Duration: 17.5 ± 5.8 (0.4242) s
  Shrink Distance: 6.4 ± 1.4 (0.2345) μm
  Shrink Duration: 17.6 ± 6.6 (0.1570) s
  Shrink Rate: 24.6 ± 3.5 (0.1242) μm/min
Tubulin [10]
  Competition of tubulin binding to biotinylated DZ-2384 surfaces: blocked its binding
Tubulin [11]
  Affinity compared to vinblastine: lower affinity
HeLa cells; Homo sapiens, 72 h
  IC80: 11 nM
[12]; mouse, in vivo, 30 mg/m^2
  AUC: 2310 ng·h/mL
[13]
  Body weight loss: less than 10%

## Nc1ccn([C@@H]2O[C@H](CO)[C@@H](O)C2(F)F)c(=O)n1 [gemcitabine, reference compound]
[14]
  Effect on tumor growth: insignificant effects on tumor growth
[15]; weanling mice
  Clinical observations: not with gemcitabine alone

## CC(=O)O[C@@]12CO[C@@H]1C[C@H](O)[C@@]1(C)C(=O)[C@H](O)C3=C(C)[C@@H](OC(=O)[C@H](O)[C@@H](NC(=O)OC(C)(C)C)c4ccccc4)C[C@@](O)([C@@H](OC(=O)c4ccccc4)[C@H]21)C3(C)C [docetaxel, reference compound]
[1]
  Microtubule polymer mass: increased microtubule polymer mass
[16]; day 24
  Caudal and digital NCV: decrease in NCV in caudal and digital nerves
  Tibial nerve onset latency: increase in onset latency in tibial nerves
[16]; day 44
  Caudal and digital NCV after recovery: no improvement in either caudal or digital NCV
  Histology of dorsal root ganglia and sciatic nerve: incomplete recovery of the damaged dorsal root ganglia

## CC(C)[C@H](O)C(=O)N[C@H]1Cc2ccc3c(c2)[C@]2(C4=C(c5nc(CO)co5)N=C(O4)[C@H](C(C)(C)C)NC1=O)c1cc(F)ccc1N[C@@H]2O3 [DZ-2384]
[1]
  Microtubule polymer mass: decrease in microtubule polymer mass
[2]
  Axonal morphology, width and tubulin staining: minimal qualitative differences
[3]
  Interphase microtubule network: microtubules were present
H1299 cells [4]; H1299 cells
  IC50: 12 nM
[17]; 4.5 mg/m^2
  Tumor-free animals: 1 of 5
[17]; 18 mg/m^2
  Tumor-free animals: 2 of 8
[17]; all treated groups, P < 0.0001 vs vehicle
  Survival: significantly increased the survival
[17]; starting at the lowest dose tested
  Effect on lung metastases: regression of all lung metastases
[5]
  Safety margin (range over MIA PaCa-2 and HT-29 models): 24.4 to 53.5
Purified tubulin [6]; [23]
  Growth and shrinkage rates: decreased by about twofold
  Catastrophe frequencies: slightly increased
Purified tubulin [6]; P = 0.0236 at 50 nM
  Rescue frequency: twice the rate seen with vinorelbine
[18]; 9 mg/m^2, ~3 months after treatment
  Tumor-free animals: all mice were tumor-free
[18]; 4 weekly bolus i.v. administrations
  Tumor response: complete tumor regression
[7]; U-2 OS, 3-day
  IC80: 300 nM
[19]
  Dose reducing circulating tumor cells (day 23) and increasing survival: ≤ 0.7 mg/m^2
[8]
  Number of growing microtubules: decreased the number of growing microtubules
[9]
  %Time per phase Growth: 42.1 ± 13.1 (0.9109) %
  %Time per phase Pause: 32.7 ± 12.1 (0.7422) %
  %Time per phase Shrink: 25.2 ± 1.4 (0.3079) %
  Dynamicity: 10.4 ±1.4 (0.0335) μm/min
  Growth Distance: 2.4 ± 0.3 (0.0631) μm
  Growth Duration: 19.0 ± 6.2 (0.2666) s
  Growth Rate: 8.3 ±1.6 (0.0164) μm/min
  Shrink Distance: 4.7 ± 0.9 (0.3899) μm
  Shrink Duration: 10.6 ± 1.3 (0.6087) s
  Shrink Rate: 27.7 ± 2.2 (0.6081) μm/min
Tubulin [10]
  Competition of tubulin binding to biotinylated DZ-2384 surfaces: inhibited its binding
Purified tubulin [20]
  Protofilament curvature (κ): straighter
[21]
  IC50: 43 nM
[14]; day 29
  Deaths: One animal inexplicably died
[14]
  Effect on tumor growth: insignificant effects on tumor growth
[14]; then quickly recovered
  Body weight loss after the first dose: 11%
HeLa cells; 3-day cell viability assay
  IC80: 4 nM
[16]; day 24, 12 mg/m^2, vs age-matched controls
  NCV and onset latency: normal NCV and onset latency
[16]; day 24
  Caudal and digital NCV: slowing of the caudal and distal digital NCV
  Tibial nerve onset latency: the tibial nerve was unaffected
[16]; day 44, 12 mg/m^2
  Histology of lumbar dorsal root ganglia and sciatic nerve: no changes
[16]; day 44
  Caudal and digital NCV after recovery: remained slow
  Histology of dorsal root ganglia and sciatic nerve: did not find histological evidence of neurotoxicity
H1299 cells [22]
  Start of accumulation in G2-M phase: 4 to 8 h
H1299 cells [22]; after treatment
  Start of apoptosis (procaspase-3 cleavage): 16 h
[12]; mouse plasma AUC at the MED of the HT-29 model
  MED Exposure [AUC0-α]: 344 ng·h/mL
[12]; mouse plasma AUC at the MED of the MIA PaCa-2 model
  MED Exposure [AUC0-α]: 157 ng·h/mL
[12]; mouse plasma AUC at the NOAEL dose
  NOAEL Exposure [AUC0-α]: 8398 ng·h/mL
Pharmacokinetics in rats
  AUC: 4371 ng·h/mL
[15]; administered on P23 (no mortality)
  Tolerability of 30 mg/m^2: tolerated
[13]
  Body weight loss: less than 10%
